Results on one substance are retold here after article PMC6325233, “A Novel Actin Binding Drug with In Vivo Efficacy” (Antimicrobial Agents and Chemotherapy, 2018).

Assay type in all cases: cell-based
Assay [1] has as its system clinically relevant fungi. Kind of assay: Spectrum of antifungal activity (summary). The protocol:
(§1) Occidiofungin was purified from a liquid culture of Burkholderia contaminans MS14 as previously described ([21]). MIC susceptibility testing was performed according to the CLSI M27-A3 and M38-A2 standards for the susceptibility testing of yeasts and filamentous fungi, respectively. S. cerevisiae deletion mutants were obtained from the commercially available BY4741 deletion library (Thermo Scientific).

The subject of assay [2] is Candida parapsilosis 2006. Kind of assay: MIC susceptibility testing (caspofungin-resistant strain). The arrangement: key to MIC, 50% inhibition: -: indicates absence of isolates with 50% inhibition endpoint. As to conditions: CLSI M27-A3. On the procedure: as §1
Assay [3] relates to Cryptococcus neoformans 19526. The description is as above. As to conditions: CLSI M27-A3; 72 hours. The arrangement: key to MIC, 50% inhibition: -: indicates absence of isolates with 50% inhibition endpoint. The protocol: as §1
The test system of assay [4] is S. pombe. Kind of assay: FM-464 uptake (endocytosis) assay. As to conditions: 0.5 μg/ml (0.5× MIC) and 1 μg/ml (1× MIC), 30 min, 30°C. On the procedure:
The hyphal induction assay was performed as previously reported with minor modifications ([58]). Candida albicans strain ATCC 66027 was grown in yeast extract-peptone-dextrose (YPD) medium at 30°C for 48 h to reach saturation with an OD600 of 17 to 19. Cells were diluted into fresh Spider medium (1% nutrient broth, 1% mannitol, 0.2% K2HPO4) to obtain an OD600 of 0.05 (∼0.5 × 10^6 to 1 × 10^6 cells/ml) and incubated at 37°C with shaking to induce hyphal formation. Immediately prior to the 37°C incubation, occidiofungin (1 µg/ml; 0.5× MIC) or an equal volume of DMSO was added to the cultures. Aliquots were removed at 0-, 1-, 2-, 4-, and 6-h time points and fixed in 3.7% formaldehyde for later analysis of cell morphology by light microscopy. More than 200 cells were examined for each time point, and cells were scored as having either a yeast or filamentous form, with cells showing any outgrowth considered filamentous. DNA segregation assays were performed using a mid-log culture of S. cerevisiae (BY4743, diploid) and C. albicans (ATCC 66027). The cultures were diluted in fresh YPD medium to obtain OD600s of 0.095 (∼1 × 10^6 to 1.5 × 10^6 cells/ml) and 0.05 (0.5 × 10^6 to 0.8 × 10^6 cells/ml), respectively. […] Images were viewed using a Nikon 50i fluorescence microscope with a 100× oil immersion objective and DAPI filter. Cells were scored on the basis of bud morphology and DNA location. […]

Entries after “also recorded” stand apart in the source; their conditions may differ.

On to occidiofungin, for which the “activity against filamentous fungi” value in assay [1] (Aspergillus, Mucor, Fusarium, Rhizopus, and azole- and terbinafine-resistant Trichophyton) is “active”. Moreover, the “activity against fluconazole- and caspofungin-resistant Candida” value in assay [1] (Candida albicans, Candida glabrata, Candida parapsilosis resistant to fluconazole and caspofungin) is on record as “sensitive to occidiofungin”. Further, the “activity against caspofungin-resistant strains” value in assay [1] (Candida parapsilosis and C. neoformans resistant to caspofungin) was “susceptible to treatment with occidiofungin”. For the same substance, the “activity against C. auris” value in assay [1] (strains of C. auris) is “sensitive to occidiofungin at submicromolar concentrations”. Also, the “activity against filamentous and nonfilamentous fungi” value in assay [1] (summary of Table S1) is “low micromolar inhibitory activity; also recorded: activity against filamentous and nonfilamentous fungi at submicromolar concentrations”. Further, the “spectrum of activities vs other clinically available antifungals” value in assay [1] (summary of Table S1) is recorded as “broader spectrum of activities”. The “MIC, 50% inhibition” value in assay [2] (24 hours) is 2 µg/mL; in assay [2] (48 hours), “-”; in assay [3] it was “-”. Besides, the “MIC, 100% inhibition” value in assay [2] (24 hours) worked out at 4 µg/mL; in assay [2] (48 hours) it was 4 µg/mL; in assay [3], 2 µg/mL. In assay [4], the “effect on endocytosis (FM-464-stained vesicles)” value is listed as “concentration-dependent reductions in stained endocytic vesicles; also recorded: decreased in a dose-dependent fashion”.
